{"source": "ChEMBL document CHEMBL6074653", "about": "“Reversal of insulin resistance to combat type 2 diabetes mellitus by newer thiazolidinedione's in fructose induced insulin resistant rats” (Eur J Med Chem, 2024)", "key": {"Rattus norvegicus [1]": {"test_system": "Rattus norvegicus", "assay": "Anti-diabetic activity in fructose-treated male Wistar rat assessed as decrease in insulin level at 10 mg/kg, po administered for 15 days by insulin tolerance test", "type": "functional, organism-based", "details": "time 15.0 day"}, "[2]": {"assay": "Half life in male Wistar rat at 10 mg/kg, po measured upto 24 hrs", "type": "ADME, organism-based", "details": "in vivo"}, "Rattus norvegicus [3]": {"test_system": "Rattus norvegicus", "assay": "Anti-diabetic activity in fructose-treated male Wistar rat assessed as increase in HDL level at 10 mg/kg, po administered for 15 days (reference value: 25.35 +/-2.03 mg/dL)", "type": "functional", "details": "time 15 day"}, "Rattus norvegicus [4]": {"test_system": "Rattus norvegicus", "assay": "Anti-diabetic activity in fructose-treated male Wistar rat assessed as decrease in triglycerides level at 10 mg/kg, po administered for 15 days (reference value: 140.03 +/-3.55 mg/dL)", "type": "functional", "details": "time 15 day"}, "[5]": {"assay": "AUC (0 to t) in male Wistar rat at 10 mg/kg, po measured upto 24 hrs", "type": "ADME, organism-based", "details": "in vivo"}, "[6]": {"assay": "Acute toxicity in male Wistar rat assessed as body weight gain at 10 mg/kg, po administered for 15 days", "type": "organism-based", "details": "in vivo, 360 h, time 15 day"}, "[7]": {"assay": "Retention time of the compound by HPLC analysis", "type": "physicochemical"}, "Rattus norvegicus [8]": {"test_system": "Rattus norvegicus", "assay": "Anti-diabetic activity in fructose-treated male Wistar rat assessed as increase in CAT level in liver at 10 mg/kg, po administered for 15 days (reference value: 27.65 +/-1.02 U/min)", "type": "functional", "details": "time 15 day"}, "Rattus norvegicus [9]": {"test_system": "Rattus norvegicus", "assay": "Anti-diabetic activity in fructose-treated male Wistar rat assessed as change in HOMO-IR level at 10 mg/kg, po administered for 15 days", "type": "functional, organism-based", "details": "time 15.0 day"}, "Rattus norvegicus [10]": {"test_system": "Rattus norvegicus", "assay": "Anti-diabetic activity in fructose-treated male Wistar rat assessed as increase in SOD level in liver at 10 mg/kg, po administered for 15 days (reference value: 13.25 +/-1.35 U/ml)", "type": "functional", "details": "time 15 day"}, "[11]": {"assay": "Cmax in male Wistar rat at 10 mg/kg, po measured upto 24 hrs", "type": "ADME, organism-based", "details": "in vivo"}, "[12]": {"assay": "AUC (0 to infinity) in male Wistar rat at 10 mg/kg, po measured upto 24 hrs", "type": "ADME, organism-based", "details": "in vivo"}, "Rattus norvegicus [13]": {"test_system": "Rattus norvegicus", "assay": "Anti-diabetic activity in fructose-treated male Wistar rat assessed as increase in glycogen content in skeletal muscle at 10 mg/kg, po administered for 15 days", "type": "functional, organism-based", "details": "time 15.0 day"}, "Rattus norvegicus [14]": {"test_system": "Rattus norvegicus", "assay": "Anti-diabetic activity in fructose-treated male Wistar rat assessed as increase in GSH level in liver at 10 mg/kg, po administered for 15 days (reference value: 39.98 +/-0.86 nM/mg )", "type": "functional", "details": "time 15 day"}, "[15]": {"assay": "Drug recovery in rat plasma at 100 mg/kg, po by HPLC analysis", "type": "ADME, organism-based", "details": "in vivo"}, "L6": {"test_system": "L6", "assay": "Induction of glucose uptake in rat L6 cells incubated for 24 hrs by GOD-POD technique", "type": "functional", "set-up": "concentration or dose not given beside the values"}, "Rattus norvegicus [16]": {"test_system": "Rattus norvegicus", "assay": "Anti-diabetic activity in fructose-treated male Wistar rat assessed as decrease in MDA level in liver at 10 mg/kg, po administered for 15 days (reference value: 294.65 +/-11.78 nM/mg )", "type": "functional", "details": "time 15 day"}, "Rattus norvegicus [17]": {"test_system": "Rattus norvegicus", "assay": "Anti-diabetic activity in fructose-treated male Wistar rat assessed as decrease in SGPT level at 10 mg/kg, po administered for 15 days (reference value: […])", "type": "functional", "details": "time 15 day"}, "Rattus norvegicus [18]": {"test_system": "Rattus norvegicus", "assay": "Anti-diabetic activity in fructose-treated male Wistar rat assessed as decrease in fasting blood glucose level at 10 mg/kg, po administered for 15 days", "type": "functional, organism-based", "details": "time 15.0 day"}, "Rattus norvegicus [19]": {"test_system": "Rattus norvegicus", "assay": "Anti-diabetic activity in fructose-treated male Wistar rat assessed as increase in LDL level at 10 mg/kg, po administered for 15 days (reference value: 40.32 +/-1.08 mg/dL)", "type": "functional", "details": "time 15 day"}, "Rattus norvegicus [20]": {"test_system": "Rattus norvegicus", "assay": "Anti-diabetic activity in fructose-treated male Wistar rat assessed as decrease in VLDL level at 10 mg/kg, po administered for 15 days (reference value: 28 +/-0.28 mg/dL)", "type": "functional", "details": "time 15 day"}, "Rattus norvegicus [21]": {"test_system": "Rattus norvegicus", "assay": "Anti-diabetic activity in fructose-treated male Wistar rat assessed as decrease in SGOT level at 10 mg/kg, po administered for 15 days (reference value: […])", "type": "functional", "details": "time 15 day"}, "[22]": {"assay": "Drug recovery in rat plasma at 50 mg/kg, po by HPLC analysis", "type": "ADME, organism-based", "details": "in vivo"}, "Rattus norvegicus [23]": {"test_system": "Rattus norvegicus", "assay": "Anti-diabetic activity in fructose-treated male Wistar rat assessed as increase in total cholesterol level at 10 mg/kg, po administered for 15 days (reference value: 93.68 +/-1.68 mg/dL)", "type": "functional", "details": "time 15 day"}, "Rattus norvegicus [24]": {"test_system": "Rattus norvegicus", "assay": "Anti-diabetic activity in Wistar rat Diaphragm assessed as […] at 10 mg/kg, po administered for 15 days", "type": "functional, organism-based", "details": "time 15.0 day"}, "Rattus norvegicus [25]": {"test_system": "Rattus norvegicus", "assay": "Anti-diabetic activity in fructose-treated male Wistar rat assessed as increase in glycogen content in liver at 10 mg/kg, po administered for 15 days", "type": "functional, organism-based", "details": "time 15.0 day"}, "Rattus norvegicus [26]": {"test_system": "Rattus norvegicus", "assay": "Anti-diabetic activity in fructose-treated male Wistar rat assessed as decrease in HOMO-IR level at 10 mg/kg, po administered for 15 days", "type": "functional, organism-based", "details": "time 15.0 day"}, "[27]": {"assay": "Drug recovery in rat plasma at 150 mg/kg, po by HPLC analysis", "type": "ADME, organism-based", "details": "in vivo"}, "[28]": {"assay": "Tmax in male Wistar rat at 10 mg/kg, po measured upto 24 hrs", "type": "ADME, organism-based", "details": "in vivo"}}, "note": "The source made the active and inactive calls. No cut-off for these calls is given here."}
{"smiles": "CCc1ccc(CCOc2ccc(CC3SC(=O)NC3=O)cc2)nc1", "note": "(centres undefined) [PIOGLITAZONE]", "values": [{"measurement": "Activity", "setting": "Rattus norvegicus [1]", "value": "Active"}, {"measurement": "half-life", "setting": "[2]", "value": 4.92, "unit": "h"}, {"measurement": "Activity", "setting": "Rattus norvegicus [3]", "value": 60.72, "unit": "mg/dL"}, {"measurement": "Activity", "setting": "Rattus norvegicus [4]", "value": 63.57, "unit": "mg/dL"}, {"measurement": "AUC(0-t) at 24 h", "setting": "[5]", "value": 41500, "unit": "ng·h/mL"}, {"measurement": "Activity", "setting": "[6]", "value": "Non-toxic"}, {"measurement": "Retention_time", "setting": "[7]", "value": 2.4, "unit": "min"}, {"measurement": "Activity", "setting": "Rattus norvegicus [8]", "value": 55.63, "unit": "U/min"}, {"measurement": "Activity", "setting": "Rattus norvegicus [9]", "value": "Active"}, {"measurement": "Activity", "setting": "Rattus norvegicus [10]", "value": 27.65, "unit": "U/ml"}, {"measurement": "Cmax", "setting": "[11]", "value": 3130, "unit": "ng/mL"}, {"measurement": "AUC(0-inf)", "setting": "[12]", "value": 43600, "unit": "ng·h/mL"}, {"measurement": "Activity", "setting": "Rattus norvegicus [13]", "value": "Active"}, {"measurement": "Activity", "setting": "Rattus norvegicus [14]", "value": 77.65, "unit": "nM/mg"}, {"measurement": "Drug recovery", "setting": "[15]", "value": 97.4, "unit": "%"}, {"measurement": "Activity", "setting": "L6", "value": 82.36, "unit": "%"}, {"measurement": "Activity", "setting": "Rattus norvegicus [16]", "value": 178.35, "unit": "nM/mg"}, {"measurement": "Activity", "setting": "Rattus norvegicus [17]", "value": 29.73, "unit": "U/L"}, {"measurement": "Activity", "setting": "Rattus norvegicus [18]", "value": "Active"}, {"measurement": "Activity", "setting": "Rattus norvegicus [19]", "value": 49.35, "unit": "mg/dL"}, {"measurement": "Activity", "setting": "Rattus norvegicus [20]", "value": 12.7, "unit": "mg/dL"}, {"measurement": "Activity", "setting": "Rattus norvegicus [21]", "value": 32.45, "unit": "U/L"}, {"measurement": "Drug recovery", "setting": "[22]", "value": 97.1, "unit": "%"}, {"measurement": "Activity", "setting": "Rattus norvegicus [23]", "value": 122.79, "unit": "mg/dL"}, {"measurement": "Activity", "setting": "Rattus norvegicus [24]", "value": "Active"}, {"measurement": "Activity", "setting": "Rattus norvegicus [25]", "value": "Active"}, {"measurement": "Activity", "setting": "Rattus norvegicus [26]", "value": "inactive"}, {"measurement": "Drug recovery", "setting": "[27]", "value": 98, "unit": "%"}, {"measurement": "Tmax", "setting": "[28]", "value": 2.69, "unit": "h"}]}
